Data set [1] can be described thus: Solubility in pH 2.0 solution. To be noted: buffer.
The test system of data set [2] is HepG2. In words: Toxicity in human HepG2 cells. The format is cell-based.
Data set [3] is described as follows: Toxicity in human CRL-8155 cells. In kind it is cell-based.
The nature of data set [4]: Inhibition of Cryptosporidium parvum CDPK1 assessed as reduction in ATP consumption using BioSyntide-2 substrate incubated for 90 mins by luciferase reporter gene assay. A general note: A reporter such as luciferase makes a cellular process visible.
Data set [5] addresses Proto-oncogene tyrosine-protein kinase Src (Homo sapiens, UniProt P12931). In words: Inhibition of SRC (unknown origin). The format is ADME.
The subject of data set [6] is Cryptosporidium parvum. In words: Antimicrobial activity against nano-luciferase-expressing Cryptosporidium parvum infected in IFN-gamma KO B6.129S7-Ifngtm1Ts/J mouse assessed as log reduction of infection at 30 mg/kg, po BID for 5 days beginning on day 6 post infection relative untreated control. In kind it is functional, organism-based. To be noted: time 5.0 day.

Data set [7] concerns Cryptosporidium parvum. In words: Antimicrobial activity against nano-luciferase-expressing Cryptosporidium parvum infected in IFN-gamma KO B6.129S7-Ifngtm1Ts/J mouse assessed as log reduction of infection at 60 mg/kg, po QD for 5 days beginning on day 6 post infection relative untreated control. To be noted: time 5 day.
The nature of data set [8]: Clearance in mouse at 25 mg/kg, po. In kind it is ADME, organism-based. To be noted: in vivo.
Data set [9] is described as follows: AUC in mouse at 25 mg/kg, po. In kind it is ADME, organism-based. Further details: dose 25 mg/kg. To be noted: in vivo.
Data set [10] can be described thus: Protein binding in human plasma by dialysis method.
Data set [11] is described as follows: Solubility in pH 6.5 solution. To be noted: buffer.
The nature of data set [12]: Protein binding in mouse plasma by dialysis method.
Data set [13] can be described thus: Drug level in mouse fecus at 25 mg/kg, po. To be noted: read-out: Drug uptake, in vivo.
A short description of data set [14]: Clearance in mouse at 10 mg/kg, po. In kind it is ADME, organism-based. To be noted: in vivo.
A short description of data set [15]: AUC in mouse at 10 mg/kg, po. More on the design: dose 10 mg/kg. In kind it is ADME, organism-based. To be noted: in vivo.

≈ marks a conversion by molar mass, not a printed value. Calls of active or inactive are those of the source. No cut-off for these calls is given here.

We go through 19 molecules from ChEMBL document CHEMBL4673226, “Development of 5-Aminopyrazole-4-carboxamide-based Bumped-Kinase Inhibitors for Cryptosporidiosis Therapy” (J Med Chem, 2019).

Sequence of Proto-oncogene tyrosine-protein kinase Src (P12931 2-536 limits assumed): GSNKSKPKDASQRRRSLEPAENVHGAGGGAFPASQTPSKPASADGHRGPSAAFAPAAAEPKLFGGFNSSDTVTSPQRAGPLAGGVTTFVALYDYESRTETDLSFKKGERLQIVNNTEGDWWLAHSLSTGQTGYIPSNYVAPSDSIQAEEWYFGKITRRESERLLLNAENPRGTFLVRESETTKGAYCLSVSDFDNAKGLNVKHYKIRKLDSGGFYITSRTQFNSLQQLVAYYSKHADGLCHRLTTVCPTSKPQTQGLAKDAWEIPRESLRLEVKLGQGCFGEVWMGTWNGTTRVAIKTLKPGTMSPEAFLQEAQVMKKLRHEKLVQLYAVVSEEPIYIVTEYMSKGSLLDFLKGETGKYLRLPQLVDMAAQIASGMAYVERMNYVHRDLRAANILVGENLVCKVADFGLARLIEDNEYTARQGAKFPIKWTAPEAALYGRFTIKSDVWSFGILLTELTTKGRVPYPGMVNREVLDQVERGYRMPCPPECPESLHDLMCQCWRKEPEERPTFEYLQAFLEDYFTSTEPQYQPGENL

In turn, `CC(C)(CCO)n1nc(-c2cnc3cc(OC4CC4)ccc3c2)c(C(N)=O)c1N` came in with a solubility in data set [1] of 88.8 µM (≈ 35.1 µg/mL). Also, the Activity result in data set [2] and in data set [3] was “Non-Toxic” throughout. Further, the concentration for half-maximal inhibition (IC50) is 3 nM in data set [4] and above 10000 nM in data set [5].

In the case of `CCOc1ccc2cc(-c3nn(C(C)CCO)c(N)c3C(N)=O)ccc2c1` (stereo not drawn), in [6], the outcome was Active. In addition, in data set [7], the FC was 2.62. The molecule also yielded an apparent clearance CL/F in data set [8] of 0.8 mL/min. The AUC in data set [9] came out at 1738 µmol·min/L. Besides, the PPB was 88% in data set [10] and 71% in [12]. Further, the solubility in [1] is above 100 µM; in [11] it was 56.7 µM (≈ 20.9 µg/mL). The Activity entry in data set [2] and in [3] was “Non-Toxic” throughout. Besides, the IC50 in data set [4] amounted to 2 nM; in data set [5], 10000 nM.

As to `CCOc1ccc2cc(-c3nn(C(C)CCO)c(N)c3C(N)=O)ccc2n1` (stereo not drawn), the Activity result in [2] and in [3] was “Non-Toxic” in each case.

Take `CCOc1ccc2cc(-c3nn(C(C)CCO)c(N)c3C(N)=O)cnc2c1` (stereo not drawn): the FC in data set [7] turned out to be 3.41. For the same molecule, the concentration in data set [13] was 1.1 µM. In data set [14], this molecule came in with a CL/F of 1.9 mL/min. The area under the curve (AUC) in [15] was 339 µmol·min/L. Also, the PPB in data set [10] is given as 84%; in data set [12], 86%. The values for the solubility in data set [1] and in [11] were 78 µM (≈ 28.8 µg/mL) and above 100 µM, respectively. For the same molecule, the Activity entry in data set [2] and in data set [3] was “Non-Toxic” each time. Besides, the IC50 in data set [5] is 3500 nM.

Take `CCOc1ccc2cc(-c3nn(CC(C)(C)CO)c(N)c3C(N)=O)cnc2c1`: the solubility in data set [11] is above 100 µM. In addition, the Activity result in [2] and in [3] was “Non-Toxic” in each case. This molecule yielded an IC50 in data set [5] above 10000 nM.

Consider `CCOc1ccc2cc(-c3nn(CC(C)(C)CO)c(N)c3C(N)=O)ccc2c1`, for which the FC in data set [7] is on record as -0.03. Further, the concentration in data set [13] is 7.6 µM. For the same molecule, the CL/F in [8] came out at 2.1 mL/min. The AUC in data set [9] amounted to 621.1 µmol·min/L. The PPB amounted to 94% in data set [10] and 92% in data set [12]. Besides, the solubility in data set [1] is above 100 µM; in data set [11] it was 20.6 µM (≈ 7.88 µg/mL). Further, the Activity entry in data set [2] and in data set [3] was “Non-Toxic” in each case. The concentration for half-maximal inhibition (IC50) in [4] worked out at 6.6 nM; in data set [5], 6300 nM.

In the case of `C#CCOc1ccc2cc(-c3nn(C(C)(C)C)c(N)c3C(N)=O)ccc2c1`, the Activity result in data set [2] and in data set [3] was “Non-Toxic” throughout.

In turn, `CC(C)(CCO)n1nc(-c2ccc3cc(OC4CC4)ccc3c2)c(C(N)=O)c1N` yielded a CL/F in [8] of 1 mL/min. The exposure (AUC) in [9] stood at 483.2 µmol·min/L. For the same molecule, the solubility in data set [1] is above 100 µM. Moreover, the Activity result in [2] and in data set [3] was “Non-Toxic” throughout. Moreover, the IC50 is 3.8 nM in data set [4] and above 10000 nM in [5].

`CC(C)(CO)n1nc(-c2cnc3cc(OC4CC4)ccc3c2)c(C(N)=O)c1N`: the figures for the solubility in data set [1] and in [11] were 89 µM (≈ 33.9 µg/mL) and 44.2 µM (≈ 16.9 µg/mL), respectively. The Activity result in data set [2] and in data set [3] was “Non-Toxic” in each case. The figures for the half-maximal inhibitory concentration (IC50) in data set [4] and in data set [5] were 1.9 nM and above 10000 nM, respectively.

Turning to `CC(C)(CCO)n1nc(-c2ccc3nc(OC4CC4)ccc3c2)c(C(N)=O)c1N`, in [8], the CL/F amounted to 6.7 mL/min. This molecule also had an AUC in data set [9] of 193.6 µmol·min/L. Moreover, the solubility is 96 µM (≈ 38 µg/mL) in data set [1] and above 100 µM in data set [11]. For the same molecule, the Activity entry in data set [2] and in data set [3] was “Non-Toxic” throughout. Further, the values for the IC50 in data set [4] and in [5] were 2.3 nM and above 10000 nM, respectively.

Consider `CC(C)(CO)Cn1nc(-c2ccc3nc(OC4CC4)ccc3c2)c(C(N)=O)c1N`, for which the Activity result in data set [2] and in data set [3] was “Non-Toxic” throughout.

Take `CCOc1ccc2cc(-c3nn(C(C)(C)CO)c(N)c3C(N)=O)cnc2c1`: the concentration in [13] was 2.9 µM. For the same molecule, the CL/F in data set [8] was found to be 1 mL/min. The exposure (AUC) in data set [9] was found to be 50798.1 µmol·min/L. The solubility in [1] and in data set [11] was above 50 µM in each case. The Activity entry in data set [2] and in data set [3] was “Non-Toxic” throughout. Further, the 50% inhibitory concentration (IC50) in [4] was determined as 4.1 nM; in data set [5], 4700 nM.

With `CCOc1ccc2cc(-c3nn(C(C)(C)CCO)c(N)c3C(N)=O)ccc2n1`, the Activity entry in data set [2] and in data set [3] was “Non-Toxic” each time.

As to `CC(C)(CO)Cn1nc(-c2cnc3cc(OC4CC4)ccc3c2)c(C(N)=O)c1N`, the solubility in data set [1] and in data set [11] was above 100 µM throughout. For the same molecule, the Activity entry in data set [2] and in [3] was “Non-Toxic” each time. The figures for the 50% inhibitory concentration (IC50) in data set [4] and in data set [5] were 0.1 nM and above 10000 nM, respectively.

For `CC(CCO)n1nc(-c2ccc3cc(OC4CC4)ccc3c2)c(C(N)=O)c1N` (stereo not drawn), the FC in data set [7] is given as 4.78. Also, the concentration in data set [13] is 10.3 µM. The molecule also showed an apparent clearance CL/F in data set [8] of 0.3 mL/min. For the same molecule, the AUC in data set [9] was determined as 4332.8 µmol·min/L. Moreover, the PPB in data set [10] and in [12] was 95% in each case. In addition, the solubility in data set [1] and in [11] was above 100 µM each time. Further, the Activity result in data set [2] and in [3] was “Non-Toxic” each time. For the same molecule, the half-maximal inhibitory concentration (IC50) was 6 nM in [4] and above 10000 nM in data set [5].

Regarding `CC(C)(CO)n1nc(-c2ccc3nc(OC4CC4)ccc3c2)c(C(N)=O)c1N`, the Activity result in data set [2] and in [3] was “Non-Toxic” in each case.

Consider `CCOc1ccc2cc(-c3nn(C(C)(C)CCO)c(N)c3C(N)=O)cnc2c1`, for which the solubility in data set [1] is 87.9 µM (≈ 33.7 µg/mL); in [11], above 100 µM. Besides, the Activity result in [2] and in [3] was “Non-Toxic” throughout. Besides, the results for the IC50 in data set [4] and in data set [5] were 5.7 nM and 2500 nM, respectively.

With `CC(C)(CO)n1nc(-c2ccc3cc(OC4CC4)ccc3c2)c(C(N)=O)c1N`, in data set [7], the FC was determined as 4.47. In data set [13], the concentration was found to be 3.5 µM. In data set [8], this molecule displayed an apparent clearance CL/F of 0.3 mL/min. Further, the AUC in [9] was found to be 41782 µmol·min/L. Further, the values for the solubility in data set [1] and in data set [11] were 89 µM (≈ 33.9 µg/mL) and 92.9 µM (≈ 35.3 µg/mL), respectively. Besides, the PPB in data set [12] came to 80%. Besides, the Activity result in data set [2] and in [3] was “Non-Toxic” throughout. For the same molecule, the half-inhibitory concentration (IC50) is 6.9 nM in data set [4] and above 10000 nM in [5].

`CCOc1ccc2cc(-c3nn(CC(C)(C)CO)c(N)c3C(N)=O)ccc2n1` came in with an apparent clearance CL/F in data set [14] of 5.1 mL/min. Further, the area under the curve (AUC) in [15] turned out to be 140.2 µmol·min/L. For the same molecule, the Activity entry in [2] and in data set [3] was “Non-Toxic” in each case.

A word on the solubility: it is the dissolved amount per volume that the medium holds. High values mean much dissolved substance, low ones little dissolved substance. Broadly, the IC50 is the concentration that gives 50% inhibition. As usually defined, the CL/F is clearance divided by bioavailability, as obtained after extravascular dosing. A word on the AUC: it is the area under the concentration-time curve, a measure of exposure. Low readings indicate low exposure, high ones high exposure.
